System: patients with advanced solid tumors
Test: Phase I dose escalation: safety, tolerability, DLTs and MTD
Format: in vivo
Procedure: DDRiver Solid Tumors 410 was an open-label, first-in-human, multicenter, phase I study of lartesertib monotherapy, continuously administered once daily, conducted at three study sites in the United States and Canada. Part 1A was a lartesertib monotherapy dose-escalation study designed to evaluate the safety, tolerability, pharmacokinetics (PK), pharmacodynamics (PD), and early signs of efficacy in patients with advanced solid tumors. Patients were treated with lartesertib at increasing dose levels (DLs) ranging from 100 to 400 mg once daily. Each DL included a dose-limiting toxicity (DLT) observation period of 21 days; treatment was continued until disease progression, death, consent withdrawal, unacceptable toxicity, or the end of the study. Additional details are provided under Study Design in the Supplementary Material S1.
The primary endpoints were the occurrence of DLTs, adverse events (AE), and treatment-related and treatment-emergent AEs (TEAE), along with the occurrence of clinically significant changes in vital signs, laboratory parameters, and 12-lead electrocardiogram findings. The secondary endpoints included PK parameters of lartesertib in plasma after single and multiple doses; establishment of the recommended dose for expansion based on safety, PK, and PD data; absolute and relative changes overtime from baseline in ATM pathway readouts assessed by flow cytometry and immunohistochemistry; and objective response, duration of response, and progression-free survival (PFS) according to the RECIST version 1.1, as assessed by the investigator. Exploratory endpoints included the correlation of baseline and on-treatment biomarkers with response to lartesertib treatment as well as relative changes in total blood cell count, immune cells, and circulatory factors during exposure to lartesertib.
The DLT analysis set included all patients who received ≥80% of the planned cumulative dose during the DLT period (Period 1) and had completed the DLT period, or patients who experienced ≥1 DLT during the DLT period, regardless of the number of lartesertib doses administered. Additional details on all analysis sets are provided in the Supplementary Material S1. Analyses to determine dose escalation were performed on the DLT analysis set and were based on available safety and PK data. A Bayesian two-parameter logistic regression model (BLRM) was applied to assist the safety monitoring committee in dose recommendations during lartesertib dose escalation. For the determination of the MTD, posterior probabilities (2.5%, 25%, 50%, 75%, and 97.5% quantiles) for DLT rates at selected doses were estimated by a BLRM. The target toxicity of the model for MTD was set at 30%.
AEs and diseases were coded according to the Medical Dictionary for Regulatory Activities (RRID: SCR_003751) version 25.1 (until 30 days after the last study treatment). The severity of AEs was graded using the NCI Common Terminology Criteria for Adverse Events (RRID: SCR_010296) version 5.0.
Part 1A was a lartesertib monotherapy dose-escalation designed to determine the safety, tolerability, pharmacokinetics (PK), pharmacodynamics (PD), and early signs of efficacy in participants with solid tumors. For each patient, the study included a Screening period lasting up to 28 days and the estimated total duration in the study was an approximate of 105 days/15 weeks. Patients were treated with lartesertib orally as a tablet, at doses ranging from 100 to 400 mg once daily (QD) under a fasting condition of 2 hours pre-dose to 1-hour post-dose in general, and 2 hours pre-dose to 4 hours post-dose on days where PK-time matched triplicate ECG were collected. Patients were treated until disease progression, death, adverse events (AEs) leading to discontinuation of study intervention(s), or withdrawal of consent, whichever occurred first, or end of study. […]

SMILES: COc1cc2ncc3c(c2cc1-c1cn(C)nc1C)n(-c1c(F)cncc1OC)c(=O)n3C [lartesertib]
- Any TEAE leading to death (100 mg n = 2): 0 (0.0) n (%)
- Any lartesertib-related TEAE leading to death (100 mg n = 2): 0 (0.0) n (%)
- TEAE: Urinary tract infection (100 mg n = 2): 0 (0.0) n (%)
- Any TEAE leading to death (200 mg n = 7): 0 (0.0) n (%)
- Any lartesertib-related TEAE leading to death (200 mg n = 7): 0 (0.0) n (%)
- TEAE: Urinary tract infection (200 mg n = 7): 1 (14.3) n (%)
- Any TEAE leading to death (300 mg n = 9): 0 (0.0) n (%)
- Any lartesertib-related TEAE leading to death (300 mg n = 9): 0 (0.0) n (%)
- TEAE: Urinary tract infection (300 mg n = 9): 1 (11.1) n (%)
- Any TEAE leading to death (400 mg n = 4): 0 (0.0) n (%)
- Any lartesertib-related TEAE leading to death (400 mg n = 4): 0 (0.0) n (%)
- TEAE: Urinary tract infection (400 mg n = 4): 2 (50.0) n (%)
- Any TEAE leading to death (Total N = 22): 0 (0.0) n (%)
- Any lartesertib-related TEAE leading to death (Total N = 22): 0 (0.0) n (%)
- TEAE: Urinary tract infection (Total N = 22): 4 (18.2) n (%)
- Abdominal pain, Grade ≥3 (human, in vivo): 1 (4.5) n (%)
- Abdominal pain, Grade ≥4 (human, in vivo): 0 (0.0) n (%)
- Abdominal pain, Grade ≥5 (human, in vivo): 0 (0.0) n (%)
- Alanine aminotransferase increased, Grade ≥3 (human, in vivo): 2 (9.2) n (%)
- Alanine aminotransferase increased, Grade ≥4 (human, in vivo): 0 (0.0) n (%)
- Alanine aminotransferase increased, Grade ≥5 (human, in vivo): 0 (0.0) n (%)
- Anemia, Grade ≥3 (human, in vivo): 4 (18.2) n (%)
- Anemia, Grade ≥4 (human, in vivo): 0 (0.0) n (%)
- Anemia, Grade ≥5 (human, in vivo): 0 (0.0) n (%)
- Any AESI cytopenia (human, in vivo): 4 (18.2) n (%)
- Any AESI cytopenia, Grade ≥3 (all anemia events) (human, in vivo): 4 (18.2) n (%)
- Any TEAE (human, in vivo): 22 (100.0) n (%)
- Any TEAE leading to permanent treatment discontinuation (human, in vivo): 5 (22.7) n (%)
- Any TEAE leading to temporary treatment discontinuation (human, in vivo): 5 (22.7) n (%)
- Any TEAE, Grade ≥3 (human, in vivo): 13 (59.1) n (%)
- Any TEAE, Grade ≥4 (human, in vivo): 1 (4.5) n (%)
- Any lartesertib-related TEAE (human, in vivo): 15 (68.2) n (%)
- Any lartesertib-related TEAE, Grade ≥3 (human, in vivo): 4 (18.2) n (%)
- Any lartesertib-related TEAE, Grade ≥4 (human, in vivo): 1 (4.5) n (%)
- Any lartesertib-related serious TEAE (human, in vivo): 2 (9.1) n (%)
- Any serious TEAE (human, in vivo): 9 (40.9) n (%)
- Aspartate aminotransferase increased, Grade ≥3 (human, in vivo): 3 (13.6) n (%)
- Aspartate aminotransferase increased, Grade ≥4 (human, in vivo): 0 (0.0) n (%)
- Aspartate aminotransferase increased, Grade ≥5 (human, in vivo): 0 (0.0) n (%)
- Blood alkaline phosphatase increased, Grade ≥3 (human, in vivo): 1 (4.5) n (%)
- Blood alkaline phosphatase increased, Grade ≥4 (human, in vivo): 0 (0.0) n (%)
- Blood alkaline phosphatase increased, Grade ≥5 (human, in vivo): 0 (0.0) n (%)
- Blood and lymphatic system disorders, Grade ≥3 (human, in vivo): 4 (18.2) n (%)
- Blood and lymphatic system disorders, Grade ≥4 (human, in vivo): 0 (0.0) n (%)
- Blood and lymphatic system disorders, Grade ≥5 (human, in vivo): 0 (0.0) n (%)
- Blood bilirubin increased, Grade ≥3 (human, in vivo): 1 (4.5) n (%)
- Blood bilirubin increased, Grade ≥4 (human, in vivo): 0 (0.0) n (%)
- Blood bilirubin increased, Grade ≥5 (human, in vivo): 0 (0.0) n (%)
- Decreased appetite, Grade ≥3 (human, in vivo): 1 (4.5) n (%)
- Decreased appetite, Grade ≥4 (human, in vivo): 0 (0.0) n (%)
- Decreased appetite, Grade ≥5 (human, in vivo): 0 (0.0) n (%)
- Decreased neutrophil count, grade 1 or 2 (human, in vivo): 4.5%
- Decreased platelet count, grade 1 or 2 (human, in vivo): 4.5%
- Decreased white blood cell count, grade 1 or 2 (human, in vivo): 4.5%
- Dehydration, Grade ≥3 (human, in vivo): 1 (4.5) n (%)
- Dehydration, Grade ≥4 (human, in vivo): 0 (0.0) n (%)
- Dehydration, Grade ≥5 (human, in vivo): 0 (0.0) n (%)
- Gamma-glutamyltransferase increased, Grade ≥3 (human, in vivo): 1 (4.5) n (%)
- Gamma-glutamyltransferase increased, Grade ≥4 (human, in vivo): 0 (0.0) n (%)
- Gamma-glutamyltransferase increased, Grade ≥5 (human, in vivo): 0 (0.0) n (%)
- Gastrointestinal disorders, Grade ≥3 (human, in vivo): 3 (13.6) n (%)
- Gastrointestinal disorders, Grade ≥4 (human, in vivo): 0 (0.0) n (%)
- Gastrointestinal disorders, Grade ≥5 (human, in vivo): 0 (0.0) n (%)
- Grade ≥3 anemia (human, in vivo): 18.2%
- Grade ≥3 decreased lymphocyte count (human, in vivo): 13.6%
- Grade ≥3 increased aspartate aminotransferase (human, in vivo): 13.6%
- Grade ≥3 maculopapular rash (human, in vivo): 13.6%
- Immune system disorders, Grade ≥3 (human, in vivo): 1 (4.5) n (%)
- Immune system disorders, Grade ≥4 (human, in vivo): 1 (4.5) n (%)
- Immune system disorders, Grade ≥5 (human, in vivo): 0 (0.0) n (%)
- Investigations, Grade ≥3 (human, in vivo): 6 (27.3) n (%)
- Investigations, Grade ≥4 (human, in vivo): 0 (0.0) n (%)
- Investigations, Grade ≥5 (human, in vivo): 0 (0.0) n (%)
- Lartesertib-related TEAE: Aspartate aminotransferase increased (human, in vivo): 3 (13.6) n (%)
- Lartesertib-related TEAE: Blood creatinine increased (human, in vivo): 3 (13.6) n (%)
- Lartesertib-related TEAE: Diarrhea (human, in vivo): 4 (18.2) n (%)
- Lartesertib-related TEAE: Headache (human, in vivo): 3 (13.6) n (%)
- Lartesertib-related TEAE: Maculopapular rash (human, in vivo): 5 (22.7) n (%)
- Lartesertib-related TEAE: Nausea (human, in vivo): 5 (22.7) n (%)
- Lartesertib-related TEAE: Pyrexia (human, in vivo): 6 (27.3) n (%)
- Lymphocyte count decreased, Grade ≥3 (human, in vivo): 3 (13.6) n (%)
- Lymphocyte count decreased, Grade ≥4 (human, in vivo): 0 (0.0) n (%)
- Lymphocyte count decreased, Grade ≥5 (human, in vivo): 0 (0.0) n (%)
- Maculopapular rash, Grade ≥3 (human, in vivo): 3 (13.6) n (%)
- Maculopapular rash, Grade ≥4 (human, in vivo): 0 (0.0) n (%)
- Maculopapular rash, Grade ≥5 (human, in vivo): 0 (0.0) n (%)
- Metabolism and nutrition disorders, Grade ≥3 (human, in vivo): 1 (4.5) n (%)
- Metabolism and nutrition disorders, Grade ≥4 (human, in vivo): 0 (0.0) n (%)
- Metabolism and nutrition disorders, Grade ≥5 (human, in vivo): 0 (0.0) n (%)
- Nausea, Grade ≥3 (human, in vivo): 2 (9.1) n (%)
- Nausea, Grade ≥4 (human, in vivo): 0 (0.0) n (%)
- Nausea, Grade ≥5 (human, in vivo): 0 (0.0) n (%)
- Patients with at least one TEAE (human, in vivo): 100%
- Patients with at least one lartesertib-related TEAE (human, in vivo): 68.2%
- Patients with lartesertib-related grade 3 TEAEs (human, in vivo): 18.2%
- Patients with serious TEAEs (human, in vivo): 40.9%
- Serious TEAE maculopapular rash (human, in vivo): 9.1%
- Serious TEAE nausea (human, in vivo): 9.1%
- Skin and subcutaneous tissue disorders, Grade ≥3 (human, in vivo): 3 (13.6) n (%)
- Skin and subcutaneous tissue disorders, Grade ≥4 (human, in vivo): 0 (0.0) n (%)
- Skin and subcutaneous tissue disorders, Grade ≥5 (human, in vivo): 0 (0.0) n (%)
- TEAE fatigue (human, in vivo): 40.9%
- TEAE increased blood creatinine (human, in vivo): 27.3%
- TEAE nausea (human, in vivo): 27.3%
- TEAE pyrexia (human, in vivo): 36.4%
- TEAE: Abdominal pain (human, in vivo): 4 (18.2) n (%)
- TEAE: Alanine aminotransferase increased (human, in vivo): 4 (18.2) n (%)
- TEAE: Anemia (human, in vivo): 4 (18.2) n (%)
- TEAE: Aspartate aminotransferase increased (human, in vivo): 4 (18.2) n (%)
- TEAE: Blood bilirubin increased (human, in vivo): 3 (13.6) n (%)
- TEAE: Blood creatinine increased (human, in vivo): 6 (27.3) n (%)
- TEAE: Decreased appetite (human, in vivo): 3 (13.6) n (%)
- TEAE: Diarrhea (human, in vivo): 4 (18.2) n (%)
- TEAE: Fatigue (human, in vivo): 9 (40.9) n (%)
- TEAE: Headache (human, in vivo): 3 (13.6) n (%)
- TEAE: Lymphocyte count decreased (human, in vivo): 3 (13.6) n (%)
- TEAE: Maculopapular rash (human, in vivo): 5 (22.7) n (%)
- TEAE: Nausea (human, in vivo): 6 (27.3) n (%)
- TEAE: Pyrexia (human, in vivo): 8 (36.4) n (%)
- TEAE: Vomiting (human, in vivo): 5 (22.7) n (%)
- TEAEs, subjects with at least one event, Grade ≥3 (human, in vivo): 13 (59.1) n (%)
- TEAEs, subjects with at least one event, Grade ≥4 (human, in vivo): 1 (4.5) n (%)
- TEAEs, subjects with at least one event, Grade ≥5 (human, in vivo): 0 (0.0) n (%)
- Vomiting, Grade ≥3 (human, in vivo): 1 (4.5) n (%)
- Vomiting, Grade ≥4 (human, in vivo): 0 (0.0) n (%)
- Vomiting, Grade ≥5 (human, in vivo): 0 (0.0) n (%)
- Changes in vital signs and triplicate electrocardiogram values (in vivo): No clinically meaningful changes
- Patients with ≥1 treatment-related adverse events of grade ≥3 (in vivo): Five patients
- Maximum tolerated dose (MTD) (oral, continuous once daily monotherapy, suggested by BLRM): 300 mg once daily
- TEAEs leading to death (study period): No TEAEs led to death
